Experiments:
Type in all cases: in vivo
[1] = test system: Alopecurus myosuroides (ALOMY); assay: Example A pre-emergence herbicidal activity, glasshouse pot test; conditions: 480 h, evaluated 20 days after spraying, read-out: Pre-emergence activity ALOMY (100=total damage to plant; 0=no damage to plant); for pest or weed control at 250 g/ha: rate 250 g/ha; for pest or weed control at 500 g/ha: rate 500 g/ha
Procedure: (§1) Seeds of a variety of test species were sown in standard soil in pots. After cultivation for one day (pre-emergence) or after 10 days cultivation (post-emergence) under controlled conditions in a glasshouse, the plants were sprayed with an aqueous spray solution derived from the formulation of the technical active ingredient in 0.6 ml acetone and 45 ml formulation solution containing 10.6% Emulsogen EL (Registry number 61791-12-6), 42.2% N-methylpyrrolidone, 42.2% dipropylene glycol monomethyl ether (Registry number 34590-94-8) and 0.2% X-77 (Registry number 11097-66-8). The test plants were then grown in a greenhouse under optimum conditions until, 15 days later for post-emergence and 20 days for pre-emergence, the test was evaluated (100=total damage to plant; 0=no damage to plant).
(§2) Alopecurus myosuroides (ALOMY), Avena fatua (AVEFA), Lolium perenne (LOLPE), Setaria faberi (SETFA), Digitaria sanguinalis (DIGSA), Echinochloa crus-galli (ECHCG)

Avena fatua (AVEFA) [2] = assay: as above; conditions: 480 h, evaluated 20 days after spraying, read-out: Pre-emergence activity AVEFA (100=total damage to plant; 0=no damage to plant); for pest or weed control at 250 g/ha: rate 250 g/ha; for pest or weed control at 500 g/ha: rate 500 g/ha
Procedure: as §1, §2

[3] = test system: Digitaria sanguinalis (DIGSA); assay: as above; conditions: 480 h, evaluated 20 days after spraying, read-out: Pre-emergence activity DIGSA (100=total damage to plant; 0=no damage to plant); for pest or weed control at 250 g/ha: rate 250 g/ha; for pest or weed control at 500 g/ha: rate 500 g/ha
Procedure: as §1, §2

[4] = test system: Echinochloa crus-galli (ECHCG); assay: as above; conditions: 480 h, evaluated 20 days after spraying, read-out: Pre-emergence activity ECHCG (100=total damage to plant; 0=no damage to plant); for pest or weed control at 250 g/ha: rate 250 g/ha; for pest or weed control at 500 g/ha: rate 500 g/ha
Procedure: as §1, §2

Lolium perenne (LOLPE) [5] = assay: as above; conditions: 480 h, evaluated 20 days after spraying, read-out: Pre-emergence activity LOLPE (100=total damage to plant; 0=no damage to plant); for pest or weed control at 250 g/ha: rate 250 g/ha; for pest or weed control at 500 g/ha: rate 500 g/ha
Procedure: as §1, §2

Setaria faberi (SETFA) [6] = assay: as above; conditions: 480 h, evaluated 20 days after spraying, read-out: Pre-emergence activity SETFA (100=total damage to plant; 0=no damage to plant); for pest or weed control at 250 g/ha: rate 250 g/ha; for pest or weed control at 500 g/ha: rate 500 g/ha
Procedure: as §1, §2

[7] = test system: Alopecurus myosuroides (ALOMY); assay: Example A post-emergence herbicidal activity, glasshouse pot test; conditions: 360 h, rate 125 g/ha, evaluated 15 days after spraying, read-out: Post-emergence activity ALOMY (100=total damage to plant; 0=no damage to plant)
Procedure: as §1, §2

Avena fatua (AVEFA) [8] = assay: as above; conditions: 360 h, rate 125 g/ha, evaluated 15 days after spraying, read-out: Post-emergence activity AVEFA (100=total damage to plant; 0=no damage to plant)
Procedure: as §1, §2

[9] = test system: Digitaria sanguinalis (DIGSA); assay: as above; conditions: 360 h, rate 125 g/ha, evaluated 15 days after spraying, read-out: Post-emergence activity DIGSA (100=total damage to plant; 0=no damage to plant)
Procedure: as §1, §2

[10] = test system: Echinochloa crus-galli (ECHCG); assay: as above; conditions: 360 h, rate 125 g/ha, evaluated 15 days after spraying, read-out: Post-emergence activity ECHCG (100=total damage to plant; 0=no damage to plant)
Procedure: as §1, §2

Lolium perenne (LOLPE) [11] = assay: as above; conditions: 360 h, rate 125 g/ha, evaluated 15 days after spraying, read-out: Post-emergence activity LOLPE (100=total damage to plant; 0=no damage to plant)
Procedure: as §1, §2

Setaria faberi (SETFA) [12] = assay: as above; conditions: 360 h, rate 125 g/ha, evaluated 15 days after spraying, read-out: Post-emergence activity SETFA (100=total damage to plant; 0=no damage to plant)
Procedure: as §1, §2

Row | SMILES | pest or weed control at 250 g/ha [1] | pest or weed control at 250 g/ha (Avena fatua (AVEFA) [2]) | pest or weed control at 250 g/ha [3] | pest or weed control at 250 g/ha [4] | pest or weed control at 250 g/ha (Lolium perenne (LOLPE) [5]) | pest or weed control at 250 g/ha (Setaria faberi (SETFA) [6]) | pest or weed control at 125 g/ha [7] | pest or weed control at 125 g/ha (Avena fatua (AVEFA) [8]) | pest or weed control at 125 g/ha [9] | pest or weed control at 125 g/ha [10] | pest or weed control at 125 g/ha (Lolium perenne (LOLPE) [11]) | pest or weed control at 125 g/ha (Setaria faberi (SETFA) [12]) | pest or weed control at 500 g/ha [1] | pest or weed control at 500 g/ha (Avena fatua (AVEFA) [2]) | pest or weed control at 500 g/ha [3] | pest or weed control at 500 g/ha [4] | pest or weed control at 500 g/ha (Lolium perenne (LOLPE) [5]) | pest or weed control at 500 g/ha (Setaria faberi (SETFA) [6])
1 | Cc1cc(-c2ccc(C)c(C3=C(O)C(C)(C)OC(C)(C)C3=O)c2)ccc1Cl [Compound A-53] | 10% | 0% | 60% | 10% | 0% | 10% | 30% | 10% | 50% | 90% | 10% | 0% | – | – | – | – | – | –
2 | CCc1ccc(-c2ccc(Cl)cc2)cc1C1=C(O)C(C)(C)C(=O)C(C)(C)C1=O [Compound B-1] | – | – | – | – | – | – | 30% | 30% | 100% | 100% | 80% | 90% | 40% | 60% | 100% | 100% | 60% | 100%
3 | CCc1ccc(-c2ccc(Cl)cc2)cc1C1=C(O)C(C)(C)SC(C)(C)C1=O [Compound C-1] | – | – | – | – | – | – | 50% | 70% | 100% | 100% | 30% | 80% | 20% | 20% | 30% | 50% | 30% | 30%
4 | CCc1ccc(-c2ccc(Cl)cc2)cc1C1=C(O)C(C)(C)[S+]([O-])C(C)(C)C1=O (stereo not drawn) [Compound C-2] | 10% | 10% | 100% | 100% | 10% | 70% | 70% | 70% | 90% | 100% | 60% | 90% | – | – | – | – | – | –
5 | CCc1ccc(-c2ccc(Cl)cc2)cc1C1=C(O)C(C)(C)S(=O)(=O)C(C)(C)C1=O [Compound C-3] | 60% | 80% | 90% | 70% | 10% | 60% | 70% | 80% | 100% | 100% | 50% | 90% | – | – | – | – | – | –
6 | CCCCC(=O)OC1=C(c2cc(-c3ccc(Cl)cc3)ccc2CC)C(=O)C(C)(C)OC1(C)C [Compound D-2] | – | – | – | – | – | – | 20% | 10% | 90% | 90% | 20% | 90% | 30% | 60% | 100% | 80% | 80% | 100%
